# Reference: patent US8513232B2, “Substituted spirocyclic piperidine derivatives as histamine-3 (H3) receptor ligands” (Cephalon, Inc., priority 2008, dated 2013)
# Where two headings read alike, the source gives them in different places.
# Experiments:
# [1] = target: T1, rat histamine H3 receptor (Rattus norvegicus, UniProt Q9QYN8); assay: Rat H3 radioligand binding ([3H]-N-alpha-methylhistamine, SPA)
# T1 construct: encoding the entire 445-amino-acid rat histamine H3 receptor; expressed in transfected cells; membrane preparation
# Method in brief: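 Membranes from CHO-A3 cells stably expressing full-length rat H3 receptor (10 μg protein/well) incubated 4 h at room temperature, protected from light, with ~1 nM [3H]-N-alpha-methylhistamine and compound (0.01 nM-30 μM) in 50 mM Tris HCl pH 7.4, 5 mM MgCl2, 0.1% BSA. Binding read by SPA; 10 μM clobenpropit defined non-specific binding.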
# [2] = target: T2, human H3 receptor (Homo sapiens, UniProt Q9Y5N1); assay: Human H3 radioligand binding ([3H]-N-alpha-methylhistamine, SPA)
# T2 construct: expressed in transfected cells
# Method in brief: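 SPA competition binding on membranes from CHO cells stably expressing human H3 receptor (10 μg protein/well) with ~1 nM [3H]-N-alpha-methylhistamine and compound at 0.01 nM-30 μM. Incubation 4 h at room temperature in 50 mM Tris-HCl pH 7.4, 5 mM MgCl2, 0.1% BSA; non-specific binding defined with 10 μM clobenpropit.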
# [3] = Human H3 binding, Table B, Examples 136-362, read-out: hum H3 binding Ki
# [4] = Rat H3 binding, Table B, Examples 136-362, read-out: rat H3 binding Ki
# [5] = Table C, rat H3 binding, read-out: Rat H3 Ki
# [6] = Table C, human H3 binding, read-out: Human H3 Ki
# [7] = Table A, rat H3 binding, read-out: Rat Ki
# [8] = Table A, human H3 binding, read-out: Human Ki
# [9] = rat H3 binding, Table D, read-out: Rat H3 Ki
# [10] = human H3 binding, Table D, read-out: Human H3 Ki
# T2 sequence (Q9Y5N1 whole entry): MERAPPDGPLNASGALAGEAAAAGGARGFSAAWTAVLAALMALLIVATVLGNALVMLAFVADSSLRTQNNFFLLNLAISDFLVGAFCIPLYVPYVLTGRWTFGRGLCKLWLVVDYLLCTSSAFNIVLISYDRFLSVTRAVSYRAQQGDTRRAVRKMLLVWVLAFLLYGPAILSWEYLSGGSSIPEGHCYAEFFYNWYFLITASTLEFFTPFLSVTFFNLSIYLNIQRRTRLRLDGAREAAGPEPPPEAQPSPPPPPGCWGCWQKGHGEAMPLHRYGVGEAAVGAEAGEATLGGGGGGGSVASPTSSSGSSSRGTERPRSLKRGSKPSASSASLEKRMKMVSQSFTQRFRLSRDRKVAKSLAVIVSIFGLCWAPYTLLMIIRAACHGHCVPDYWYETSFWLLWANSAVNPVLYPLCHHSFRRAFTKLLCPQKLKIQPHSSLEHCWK
# T1 sequence (Q9QYN8 whole entry): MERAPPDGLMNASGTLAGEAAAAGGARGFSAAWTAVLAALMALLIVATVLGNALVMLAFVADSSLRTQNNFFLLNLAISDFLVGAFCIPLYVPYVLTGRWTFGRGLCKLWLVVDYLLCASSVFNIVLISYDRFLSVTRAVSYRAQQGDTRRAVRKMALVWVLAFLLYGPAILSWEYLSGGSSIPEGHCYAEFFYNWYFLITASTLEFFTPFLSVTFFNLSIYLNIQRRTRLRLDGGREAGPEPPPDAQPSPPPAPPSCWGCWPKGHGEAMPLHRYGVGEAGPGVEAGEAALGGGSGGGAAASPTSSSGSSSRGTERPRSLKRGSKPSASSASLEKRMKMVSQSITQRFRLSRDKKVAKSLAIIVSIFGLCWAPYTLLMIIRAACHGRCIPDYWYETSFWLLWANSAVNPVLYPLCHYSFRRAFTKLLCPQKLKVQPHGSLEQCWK
melting point,"Ki [2, 3] [nM]",Ki ([1]; read-out: Rat H3 kI) [nM],Ki ([2]; read-out: Human H3 Ki) [nM],"Ki [1, 4] [nM]",SMILES,other results
239 to 240 °C,–,200 to 1000,< 200,–,Cc1cc2c(cc1-c1ccc(=O)[nH]c1)COC1(CCN(C3CCC3)CC1)O2 [Example 543],–
219 to 221 °C,–,< 200,< 200,–,O=C1CCC(Cc2ccc3c(c2)COC2(CCN(C4CCC4)CC2)O3)CN1 (stereo not drawn) [Example 539],–
208 to 209 °C,–,< 200,< 200,–,Cn1ccc(-c2ccc3c(c2)COC2(CCN(C4CCC4)CC2)O3)cc1=O [Example 547],–
186 to 187 °C,–,< 200,< 200,–,OC1(c2ccc3c(c2)COC2(CCN(C4CCC4)CC2)O3)CCC(F)(F)CC1 [Example 554],–
95.2 to 97 °C,–,–,–,–,Cc1cc(-c2ccc3c(c2)COC2(CCN(C4CCC4)CC2)O3)cnc1O [Example 609],"Ki [1, 9]: < 200 nM; Ki [2, 10]: < 200 nM"
107 to 109 °C,–,–,–,–,Cn1nccc1-c1ccc2c(c1)COC1(CCN(C3CCC3)CC1)O2 [Example 740],"Ki [1, 9]: < 200 nM; Ki [2, 10]: < 200 nM"
174 to 175 °C,–,–,–,–,COc1ncc(-c2ccc3c(c2)COC2(CCN(C4CCC4)CC2)O3)cc1Cl [Example 629],"Ki [1, 9]: < 200 nM; Ki [2, 10]: < 200 nM"
116 to 118 °C,–,< 200,< 200,–,COC1(c2ccc3c(c2)COC2(CCN(C4CCC4)CC2)O3)CCC(F)(F)CC1 [Example 556],–
66 to 68 °C,–,–,–,–,COC(=O)CCc1ccc2c(c1)COC1(CCN(C3CCC3)CC1)O2 [Example 630],"Ki [1, 9]: < 200 nM; Ki [2, 10]: < 200 nM"
107 to 109 °C,–,–,–,–,CCc1cc(=O)[nH]cc1-c1ccc2c(c1)COC1(CCN(C3CCC3)CC1)O2 [Example 803],"Ki [1, 9]: < 200 nM; Ki [2, 10]: < 200 nM"
190 to 192 °C,–,–,–,–,CCS(=O)(=O)c1c[nH]c(=O)cc1-c1ccc2c(c1)COC1(CCN(C3CCC3)CC1)O2 [Example 793],"Ki [1, 9]: < 200 nM; Ki [2, 10]: < 200 nM"
142 to 145 °C,–,–,–,–,COc1ncc(-c2ccc3c(c2)COC2(CCN(C4CCC4)CC2)O3)cc1C [Example 610],"Ki [1, 9]: < 200 nM; Ki [2, 10]: < 200 nM"
196 to 198 °C,–,–,–,–,O=C(N[C@H]1CCOC1)c1ccc(-c2ccc3c(c2)CCC2(CCN(C4CCC4)CC2)O3)cc1 [Example 580],"Ki [1, 9]: < 200 nM; Ki [2, 10]: < 200 nM"
105 to 107 °C,–,–,–,–,Cc1nc2cccc(Cl)c2c(=O)n1-c1ccc2c(c1)COC1(CCN(C3CCC3)CC1)O2 [Example 801],"Ki [1, 9]: < 200 nM; Ki [2, 10]: < 200 nM"
148 to 150 °C,–,< 200,< 200,–,OC(c1ccc2c(c1)COC1(CCN(C3CCC3)CC1)O2)C1CCCC1 (stereo not drawn) [Example 536],–
236 to 238 °C,–,> 1000,200 to 1000,–,C(=C\c1ccc2c(c1)CCC1(CCN(C3CCC3)CC1)O2)/c1ccc(OCc2ccccc2)nc1 [Example 537],–

# More lines, now with the values behind:
SMILES,melting point,"Ki [2, 3] [nM]",Ki ([1]; read-out: Rat H3 kI) [nM],Ki ([2]; read-out: Human H3 Ki) [nM],"Ki [1, 4] [nM]",other results
CN1CCN(c2ccc3c(c2)OC2(CCN(C4CCC4)CC2)O3)C1=O [Example 151],186 to 187 °C,< 200,–,–,–,"Ki ([1]; Rat H3 binding, Table B, given as numeric bound instead of class symbol, read-out: rat H3 binding Ki): > 300 nM"
O=C1CCC(c2ccc3c(c2)CCC2(CCN(C4CCC4)CC2)O3)CN1 (stereo not drawn) [Example 534],292 to 294 °C,–,< 200,< 200,–,–
CN(C)C(=O)c1ccc(N2CCN(c3ccc4c(c3)COC3(CCN(C5CCC5)CC3)O4)C2=O)cc1 [Example 244],243 to 245 °C,< 200,–,–,< 200,–
CC(=O)N1CCC(Oc2ccc3c(c2)CCC2(CCN(C4CCC4)CC2)O3)CC1 [Example 426],227 to 229 °C,–,–,–,–,"Ki [1, 5]: < 200 nM; Ki [2, 6]: < 200 nM"
c1cc(-c2ccc3c(c2)CCC2(CCN(C4CCC4)CC2)O3)cs1 [Example 454],110 to 112 °C,–,< 200,< 200,–,–
CO[C@H]1CCN(C(=O)c2ccc(-c3ccc4c(c3)COC3(CCN(C5CCC5)CC3)O4)cc2)C1 [Example 191],120 to 121 °C,< 200,–,–,< 200,–
c1cc2c(cc1N1CCCCC1)CCC1(CCN(C3CCC3)CC1)O2 [Example 393],> 280 °C (dec.),–,–,–,–,"Ki [1, 5]: < 200 nM; Ki [2, 6]: < 200 nM"
COCCNC(=O)c1c(F)cc(-c2ccc3c(c2)COC2(CCN(C4CCC4)CC2)O3)cc1F [Example 262],125 to 126.3 °C,< 200,–,–,< 200,–
O=C(NCC(F)(F)F)N1CCN(c2ccc3c(c2)COC2(CCN(C4CCC4)CC2)O3)CC1 [Example 295],182.5 to 183.5 °C,< 200,–,–,< 200,–
CN(C)C(=O)NC1CCN(c2ccc3c(c2)COC2(CCN(C4CCC4)CC2)O3)CC1 [Example 329],193 to 195.2 °C,< 200,–,–,< 200,–
COc1ccc(C(O)c2ccc3c(c2)COC2(CCN(C4CCC4)CC2)O3)cn1 (stereo not drawn) [Example 504],78 to 80 °C,–,< 200,< 200,–,–
CN(C)C(=O)c1cn(-c2ccc3c(c2)COC2(CCN(C4CCC4)CC2)O3)c2ccccc12 [Example 83],100 to 110 °C,–,–,–,–,"Ki [1, 7]: < 200 nM; Ki [2, 8]: < 200 nM"
O=S1(=O)CCN(c2ccc3c(c2)CCC2(CCN(C4CCC4)CC2)O3)CC1 [Example 406],> 285 °C (dec.),–,–,–,–,"Ki [1, 5]: < 200 nM; Ki [2, 6]: < 200 nM"
c1ccc(COc2ccc(-c3ccc4c(c3)CCC3(CCN(C5CCC5)CC3)O4)cn2)cc1 [Example 533],115 to 117 °C,–,< 200,< 200,–,–
O=C(Nc1ccc2c(c1)CCC1(CCN(C3CCC3)CC1)O2)c1ccns1 [Example 270],109 to 111 °C,< 200,–,–,< 200,–
c1cc(CNc2ccc3c(c2)COC2(CCN(C4CCC4)CC2)O3)ccn1 [Example 247],45 to 48 °C,< 200,–,–,< 200,–
OC1(c2ccc3c(c2)COC2(CCN(C4CCC4)CC2)O3)CCC1 [Example 501],64 to 66 °C,–,< 200,< 200,–,–

SMILES,melting point,"Ki [2, 3] [nM]",Ki ([1]; read-out: Rat H3 kI) [nM],Ki ([2]; read-out: Human H3 Ki) [nM],"Ki [1, 4] [nM]",other results
CN(C)C(=O)N1CCN(c2ccc3c(c2)CCC2(CCN(C4CCC4)C2)O3)CC1 (stereo not drawn) [Example 339],231 to 233 °C,< 200,–,–,< 200,–
CCOC1CCN(c2ccc3c(c2)COC2(CCN(C4CCC4)CC2)O3)CC1 [Example 431],266 to 269 °C,–,–,–,–,"Ki [1, 5]: < 200 nM; Ki [2, 6]: < 200 nM"
CNC(=O)C1CCN(c2ccc3c(c2)COC2(CCN(C4CCC4)CC2)O3)CC1 [Example 453],> 245 °C (dec.),–,< 200,< 200,–,–
COCCN1CC(COc2ccc3c(c2)CCC2(CCN(C4CCC4)CC2)O3)CC1=O (stereo not drawn) [Example 515],194 to 196 °C,–,< 200,< 200,–,–
CNC(=O)c1ccc(-c2ccc3c(c2)CCC2(CCN(C4CCC4)CC2)O3)cc1C [Example 237],94.7 to 95.6 °C,< 200,–,–,< 200,–
CC(=O)N[C@@H]1CCN(c2ccc3c(c2)COC2(CCN(C4CCC4)CC2)O3)C1 [Example 343],77.9 to 79.9 °C,< 200,–,–,< 200,–
c1cnc(-c2ccc3c(c2)COC2(CCN(C4CCC4)CC2)O3)cn1 [Example 71],114 to 115 °C,–,–,–,–,"Ki [1, 7]: < 200 nM; Ki [2, 8]: < 200 nM"
O=C1CCCN1CCCOc1ccc2c(c1)CCC1(CCN(C3CCC3)CC1)O2 [Example 462],196 to 198 °C,–,< 200,< 200,–,–
O=S1(=O)CCC(C(O)c2ccc3c(c2)COC2(CCN(C4CCC4)CC2)O3)CC1 (stereo not drawn) [Example 511],127 to 129 °C,–,< 200,< 200,–,–
O=S1(=O)CCN(c2ccc3c(c2)COC2(CCN(C4CCC4)CC2)O3)CC1 [Example 421],157 to 158 °C,–,–,–,–,"Ki [1, 5]: < 200 nM; Ki [2, 6]: < 200 nM"
CC(=O)N(Cc1ccncc1)c1ccc2c(c1)COC1(CCN(C3CCC3)CC1)O2 [Example 250],63 to 65 °C,< 200,–,–,< 200,–
O=C(c1ccc(-c2ccc3c(c2)CCC2(CCN(C4CCC4)CC2)O3)cc1F)N1CC[C@H](O)C1 [Example 194],78 to 80 °C,< 200,–,–,< 200,–
CS(=O)(=O)c1ccc(N2CCN(c3ccc4c(c3)CCC3(CCN(C5CCC5)CC3)O4)CC2)nc1 [Example 383],258 to 260 °C,–,–,–,–,"Ki [1, 5]: < 200 nM; Ki [2, 6]: < 200 nM"
CNC(=O)c1ccc(-c2cc(F)c3c(c2)COC2(CCN(C4CCC4)CC2)O3)cc1F [Example 142],156 to 158 °C,< 200,–,–,< 200,–
O=C(c1ccc(-c2ccc3c(c2)COC2(CCN(C4CCC4)CC2)O3)cc1)N1CCC(O)CC1 [Example 258],100.4 to 102.2 °C,< 200,–,–,< 200,–
CC(=O)N(Cc1cccs1)c1ccc2c(c1)COC1(CCN(C3CCC3)CC1)O2 [Example 348],119 to 120 °C,< 200,–,–,< 200,–
